Measured values taken from US8530663B2, “1-(2-phenoxymethylheteroaryl)piperidine and piperazine compounds” (Theravance, Inc., priority 2010, dated 2013).
Marks after values point to notes of the source that are not given here.

Molecular target: T1, hSERT (Homo sapiens, UniProt P31645)
T1 construct: expressed in transfected cells; host or cells: HEK-293
Experiment: hSERT membrane radioligand binding assay (3H-citalopram)
Settings: hSERT membranes, 1.0 nM 3H-citalopram
Description: (§1) Membrane radioligand binding assays were used to measure inhibition of labeled ligand (^3H-citalopram or ^3H-nisoxetine or ^3H-WIN35428) binding to membranes prepared from cells expressing the respective human recombinant transporter (hSERT or hNET or hDAT) in order to determine the pKi values of test compounds at the transporters.
(§2) Recombinant human embryonic kidney (HEK-293) derived cell lines stably transfected with hSERT or hNET, respectively, were grown in DMEM medium supplemented with 10% dialyzed FBS (for hSERT) or FBS (for hNET), 100 μg/ml penicillin, 100 μg/ml streptomycin, 2 mM L-glutamine and 250 μg/ml of the aminoglycoside antibiotic G418, in a 5% CO2 humidified incubator at 37° C. When cultures reached 80% confluence, the cells were washed thoroughly in PBS (without Ca^2+ and Mg^2+) and lifted with 5 mM EDTA in PBS. Cells were pelleted by centrifugation, resuspended in lysis buffer (10 mM Tris-HCl, pH7.5 containing 1 mM EDTA), homogenized, pelleted by centrifugation, then resuspended in 50 mM Tris-HCl, pH 7.5 and 10% sucrose at 4° C. Protein concentration of the membrane suspension was determined using a Bio-Rad Bradford Protein Assay kit. Membranes were snap frozen and stored at −80° C. Chinese hamster ovary membranes expressing hDAT (CHO-DAT) were purchased from PerkinElmer and stored at −80° C.
(§3) Binding assays were performed in a 96-well assay plate in a total volume of 200 μL assay buffer (50 mM Tris-HCl, 120 mM NaCl, 5 mM KCl, pH 7.4) with 0.5, 1, and 3 μg membrane protein, for SERT, NET and DAT, respectively.
(§4) Stock solutions (10 mM in DMSO) of test compound were prepared and serial dilutions made using Dilution Buffer (50 mM Tris-HCl, 120 mM NaCl, 5 mM KCl, pH 7.4, 0.1% BSA, 400 μM ascorbic acid).
(§5) Following a 60 minute incubation at 22° C. (or a period sufficient to reach equilibrium), the membranes were harvested by rapid filtration over a 96-well UniFilter GF/B plate, pretreated with 0.3% polyethyleneimine, and washed 6 times with 300 μl wash buffer (50 mM Tris-HCl, 0.9% NaCl, pH 7.5 at 4° C.). Plates were dried overnight at room temperature, ˜45 μl of MicroScint™-20 (Perkin Elmer) added and bound radioactivity quantitated via liquid scintillation spectroscopy. Inhibition curves and saturation isotherms were analyzed using GraphPad Prism Software package (GraphPad Software, Inc., San Diego, Calif.). IC50 values were generated from concentration response curves using the Sigmoidal Dose Response (variable slope) algorithm in Prism GraphPad. Kd and Bmax values for the radioligand were generated from saturation isotherms using the Saturation Binding Global Fit algorithm in Prism GraphPad. pKi (negative decadic logarithm of Ki) values for test compounds were calculated from the best-fit IC50 values, and the Kd value of the radioligand, using the Cheng-Prusoff equation (Cheng & Prusoff (1973) Biochem. Pharmacol. 22(23):3099-3108): Ki=IC50/(1+[L]/Kd), where [L]=concentration radioligand.

T1 sequence (P31645 whole entry): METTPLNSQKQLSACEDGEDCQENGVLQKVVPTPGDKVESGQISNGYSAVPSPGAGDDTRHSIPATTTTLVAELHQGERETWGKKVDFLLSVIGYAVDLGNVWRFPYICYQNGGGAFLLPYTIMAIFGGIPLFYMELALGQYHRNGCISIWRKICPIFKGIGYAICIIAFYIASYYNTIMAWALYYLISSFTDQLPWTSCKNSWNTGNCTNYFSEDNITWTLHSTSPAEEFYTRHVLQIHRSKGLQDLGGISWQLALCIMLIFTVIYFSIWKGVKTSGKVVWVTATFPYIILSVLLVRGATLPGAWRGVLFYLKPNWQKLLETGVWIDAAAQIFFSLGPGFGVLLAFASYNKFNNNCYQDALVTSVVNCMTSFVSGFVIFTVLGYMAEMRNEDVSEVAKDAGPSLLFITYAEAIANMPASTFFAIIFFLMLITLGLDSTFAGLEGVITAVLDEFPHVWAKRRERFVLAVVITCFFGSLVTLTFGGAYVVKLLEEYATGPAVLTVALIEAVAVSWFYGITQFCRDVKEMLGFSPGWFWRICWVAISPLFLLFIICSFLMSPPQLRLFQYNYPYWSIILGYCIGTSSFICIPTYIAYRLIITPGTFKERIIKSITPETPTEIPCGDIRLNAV

| Structure (SMILES) | SERT pKi |
| --- | --- |
| c1ccc(OCc2ncccc2C2CCNCC2)cc1 [Example 2-1] | ≧5.0 |
| Fc1ccccc1OCc1ncccc1C1CCNCC1 [Example 2-2] | ≧6.0 |
| Clc1cccc(OCc2ncccc2C2CCNCC2)c1 [Example 2-3] | ≧7.0 |
| Fc1cccc(F)c1OCc1ncccc1C1CCNCC1 [Example 2-4] | ≧6.0 |
| Fc1cccc(Cl)c1OCc1ncccc1C1CCNCC1 [Example 2-5] | ≧7.0 |
| Clc1cccc(Cl)c1OCc1ncccc1C1CCNCC1 [Example 2-6] | ≧7.0 |
| Fc1ccc(F)c(OCc2ncccc2C2CCNCC2)c1F [Example 2-7] | ≧7.0 |
| Fc1cc(Cl)cc(F)c1OCc1ncccc1C1CCNCC1 [Example 2-8] | ≧7.0 |
| Fc1ccc(F)c(OCc2ncccc2C2CCNCC2)c1Cl [Example 2-9] | ≧7.0 |
| c1ccc(OCc2cnccc2C2CCNCC2)cc1 [Example 6-1] | ≧6.0 |
| Fc1ccccc1OCc1cnccc1C1CCNCC1 [Example 6-2] | ≧7.0 |
| Clc1cccc(OCc2cnccc2C2CCNCC2)c1 [Example 6-3] | ≧7.0 |
| Fc1cccc(Cl)c1OCc1cnccc1C1CCNCC1 [Example 6-4] | ≧7.0 |
| Clc1cccc(Cl)c1OCc1cnccc1C1CCNCC1 [Example 6-5] | ≧7.0 |
| Fc1ccc(F)c(OCc2cnccc2C2CCNCC2)c1F [Example 6-6] | ≧7.0 |
| Fc1cc(F)c(OCc2cnccc2C2CCNCC2)c(F)c1 [Example 6-7] | ≧7.0 |
| Fc1cc(Cl)cc(F)c1OCc1cnccc1C1CCNCC1 [Example 6-8] | ≧7.0 |
| Fc1ccc(F)c(OCc2cnccc2C2CCNCC2)c1Cl [Example 6-9] | ≧7.0 |
| c1ccc(OCc2ccncc2C2CCNCC2)cc1 [Example 10-1] | ≧6.0 |
| Fc1ccccc1OCc1ccncc1C1CCNCC1 [Example 10-2] | ≧7.0 |
| Fc1cccc(F)c1OCc1ccncc1C1CCNCC1 [Example 10-3] | ≧7.0 |
| Clc1cccc(Cl)c1OCc1ccncc1C1CCNCC1 [Example 10-5] | ≧7.0 |
| Clc1cccc(OCc2ccncc2C2CCNCC2)c1 [Example 10-6] | ≧7.0 |
| Fc1ccc(F)c(OCc2ccncc2C2CCNCC2)c1F [Example 10-7] | ≧7.0 |
| Fc1cc(Cl)cc(F)c1OCc1ccncc1C1CCNCC1 [Example 10-8] | ≧7.0 |
| Fc1ccc(F)c(OCc2ccncc2C2CCNCC2)c1Cl [Example 10-9] | ≧7.0 |
| c1ccc(OCc2cccnc2C2CCNCC2)cc1 [Example 14-1] | ≧6.0 |

Molecular target: T2, hNET (Homo sapiens, UniProt P23975)
T2 construct: expressed in transfected cells; host or cells: HEK-293
T2 sequence (P23975 whole entry): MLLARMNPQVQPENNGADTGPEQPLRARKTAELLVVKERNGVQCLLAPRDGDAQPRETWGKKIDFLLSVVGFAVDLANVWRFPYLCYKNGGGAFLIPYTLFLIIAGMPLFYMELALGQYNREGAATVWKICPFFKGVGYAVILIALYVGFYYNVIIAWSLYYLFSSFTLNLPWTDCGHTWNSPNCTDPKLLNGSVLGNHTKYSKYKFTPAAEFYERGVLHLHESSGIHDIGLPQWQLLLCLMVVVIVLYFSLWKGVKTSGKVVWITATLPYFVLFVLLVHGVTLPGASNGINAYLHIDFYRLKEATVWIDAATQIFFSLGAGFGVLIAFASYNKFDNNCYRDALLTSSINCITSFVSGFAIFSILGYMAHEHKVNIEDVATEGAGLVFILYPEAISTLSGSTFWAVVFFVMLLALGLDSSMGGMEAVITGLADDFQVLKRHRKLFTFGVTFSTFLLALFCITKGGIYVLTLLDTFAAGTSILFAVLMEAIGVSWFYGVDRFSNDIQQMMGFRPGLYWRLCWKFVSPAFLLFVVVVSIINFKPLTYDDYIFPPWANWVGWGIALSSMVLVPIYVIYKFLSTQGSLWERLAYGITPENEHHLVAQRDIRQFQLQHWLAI
Experiment: hNET membrane radioligand binding assay (3H-nisoxetine)
Settings: hNET membranes, 1.0 nM 3H-nisoxetine
Description: as §1, §2, §3, §4, §5

| Structure (SMILES) | NET pKi |
| --- | --- |
| c1ccc(OCc2ncccc2C2CCNCC2)cc1 [Example 2-1] | ≧6.0 |
| Fc1ccccc1OCc1ncccc1C1CCNCC1 [Example 2-2] | ≧7.0 |
| Clc1cccc(OCc2ncccc2C2CCNCC2)c1 [Example 2-3] | ≧5.0 |
| Fc1cccc(F)c1OCc1ncccc1C1CCNCC1 [Example 2-4] | ≧7.0 |
| Fc1cccc(Cl)c1OCc1ncccc1C1CCNCC1 [Example 2-5] | ≧7.0 |
| Clc1cccc(Cl)c1OCc1ncccc1C1CCNCC1 [Example 2-6] | ≧7.0 |
| Fc1ccc(F)c(OCc2ncccc2C2CCNCC2)c1F [Example 2-7] | ≧6.0 |
| Fc1cc(Cl)cc(F)c1OCc1ncccc1C1CCNCC1 [Example 2-8] | ≧6.0 |
| Fc1ccc(F)c(OCc2ncccc2C2CCNCC2)c1Cl [Example 2-9] | ≧6.0 |
| c1ccc(OCc2cnccc2C2CCNCC2)cc1 [Example 6-1] | ≧5.0 |
| Fc1ccccc1OCc1cnccc1C1CCNCC1 [Example 6-2] | ≧6.0 |
| Clc1cccc(OCc2cnccc2C2CCNCC2)c1 [Example 6-3] | ≧5.0 |
| Fc1cccc(Cl)c1OCc1cnccc1C1CCNCC1 [Example 6-4] | ≧7.0 |
| Clc1cccc(Cl)c1OCc1cnccc1C1CCNCC1 [Example 6-5] | ≧7.0 |
| Fc1ccc(F)c(OCc2cnccc2C2CCNCC2)c1F [Example 6-6] | ≧6.0 |
| Fc1cc(F)c(OCc2cnccc2C2CCNCC2)c(F)c1 [Example 6-7] | ≧7.0 |
| Fc1cc(Cl)cc(F)c1OCc1cnccc1C1CCNCC1 [Example 6-8] | ≧6.0 |
| Fc1ccc(F)c(OCc2cnccc2C2CCNCC2)c1Cl [Example 6-9] | ≧7.0 |
| c1ccc(OCc2ccncc2C2CCNCC2)cc1 [Example 10-1] | ≧6.0 |
| Fc1ccccc1OCc1ccncc1C1CCNCC1 [Example 10-2] | ≧7.0 |
| Fc1cccc(F)c1OCc1ccncc1C1CCNCC1 [Example 10-3] | ≧7.0 |
| Clc1cccc(Cl)c1OCc1ccncc1C1CCNCC1 [Example 10-5] | ≧7.0 |
| Clc1cccc(OCc2ccncc2C2CCNCC2)c1 [Example 10-6] | ≧6.0 |
| Fc1ccc(F)c(OCc2ccncc2C2CCNCC2)c1F [Example 10-7] | ≧7.0 |
| Fc1cc(Cl)cc(F)c1OCc1ccncc1C1CCNCC1 [Example 10-8] | ≧7.0 |
| Fc1ccc(F)c(OCc2ccncc2C2CCNCC2)c1Cl [Example 10-9] | ≧7.0 |
| c1ccc(OCc2cccnc2C2CCNCC2)cc1 [Example 14-1] | ≧6.0 |

Molecular target: T1, hSERT
Experiment: fluorescence-based serotonin reuptake assay (Tsuruda et al. 2010; data with asterisk)
Type: cell-based
Settings: serotonin reuptake inhibition, fluorescence-based assay (data indicated by an asterisk)

| Structure (SMILES) | SERT pIC50 |
| --- | --- |
| Fc1ccc(F)c(OCc2ncccc2C2CCNCC2)c1Cl [Example 2-9] | ≧7.0* |

Molecular target: T2, hNET
Experiment: fluorescence-based norepinephrine reuptake assay (Tsuruda et al. 2010; data with asterisk)
Type: cell-based
Settings: norepinephrine reuptake inhibition, fluorescence-based assay (data indicated by an asterisk)

| Structure (SMILES) | NET pIC50 |
| --- | --- |
| Fc1ccc(F)c(OCc2ncccc2C2CCNCC2)c1Cl [Example 2-9] | ≧7.0* |
